{"source": "PubChem BioAssay AID1259407", "about": "(Chemical Carcinogenesis Research Information System (CCRIS), 2018)", "test_system": "CCRIS mutagenicity, Ames/micronucleus/aberration tests", "test": "CCRIS mutagenicity studies", "key": {"[1]": {"details": "Test System: AMES SALMONELLA TYPHIMURIUM, Strain/Indicator: TA98, Metabolic Activation: NONE, Method: PREINCUBATION"}, "[2]": {"details": "Test System: AMES SALMONELLA TYPHIMURIUM, Strain/Indicator: TA100, Metabolic Activation: NONE, Method: PREINCUBATION"}}, "note": "Activity calls are given as the source filed them. The rule behind the calls is not given here."}
{"smiles": "Nc1ccc(N=Nc2ccc3c(c2)C(=O)/C(=N/Nc2ccc(Nc4ccc(N/N=C5/C(=O)c6cc(N=Nc7ccc(N)cc7N)ccc6C=C5S(=O)(=O)O)cc4S(=O)(=O)O)cc2)C(S(=O)(=O)O)=C3)c(N)c1", "values": [{"measurement": "mutagenic call", "setting": "Test System: AMES SALMONELLA TYPHIMURIUM, Strain/Indicator: TA98, Metabolic Activation: HAMSTER LIVER S-9, Method: PREINCUBATION", "value": "active; positive"}, {"measurement": "mutagenic call", "setting": "Test System: AMES SALMONELLA TYPHIMURIUM, Strain/Indicator: TA98, Metabolic Activation: HAMSTER, LIVER, S-9, AROCLOR 1254, Method: STANDARD PLATE", "value": "active; positive"}, {"measurement": "mutagenic call", "setting": "Test System: AMES SALMONELLA TYPHIMURIUM, Strain/Indicator: TA98, Metabolic Activation: HAMSTER, LIVER, S-9, Method: PREINCUBATION (PRIVAL METHOD)", "value": "active; positive"}, {"measurement": "mutagenic call", "setting": "[1]", "value": "active; positive"}, {"measurement": "mutagenic call", "setting": "Test System: AMES SALMONELLA TYPHIMURIUM, Strain/Indicator: TA98, Metabolic Activation: NONE, Method: STANDARD PLATE", "value": "active; positive"}, {"measurement": "mutagenic call", "setting": "Test System: AMES SALMONELLA TYPHIMURIUM, Strain/Indicator: TA98, Metabolic Activation: RAT LIVER S-9, AROCLOR 1254, Method: PREINCUBATION", "value": "active; positive"}, {"measurement": "mutagenic call", "setting": "Test System: AMES SALMONELLA TYPHIMURIUM, Strain/Indicator: TA98, Metabolic Activation: RAT, LIVER, S-9, AROCLOR 1254, Method: STANDARD PLATE", "value": "active; positive"}, {"measurement": "mutagenic call", "setting": "Test System: AMES SALMONELLA TYPHIMURIUM, Strain/Indicator: TA100, Metabolic Activation: HAMSTER LIVER S-9, Method: PREINCUBATION", "value": "active; positive"}, {"measurement": "mutagenic call", "setting": "Test System: AMES SALMONELLA TYPHIMURIUM, Strain/Indicator: TA100, Metabolic Activation: HAMSTER, LIVER, S-9, AROCLOR 1254, Method: STANDARD PLATE", "value": "inactive; negative"}, {"measurement": "mutagenic call", "setting": "[2]", "value": "inactive; negative"}, {"measurement": "mutagenic call", "setting": "Test System: AMES SALMONELLA TYPHIMURIUM, Strain/Indicator: TA100, Metabolic Activation: NONE, Method: STANDARD PLATE", "value": "inactive; negative"}, {"measurement": "mutagenic call", "setting": "Test System: AMES SALMONELLA TYPHIMURIUM, Strain/Indicator: TA100, Metabolic Activation: RAT LIVER S-9, AROCLOR 1254, Method: PREINCUBATION", "value": "inactive; negative"}, {"measurement": "mutagenic call", "setting": "Test System: AMES SALMONELLA TYPHIMURIUM, Strain/Indicator: TA100, Metabolic Activation: RAT, LIVER, S-9, AROCLOR 1254, Method: STANDARD PLATE", "value": "inactive; negative"}, {"measurement": "mutagenic call", "setting": "Test System: AMES SALMONELLA TYPHIMURIUM, Strain/Indicator: TA1535, Metabolic Activation: HAMSTER, LIVER, S-9, AROCLOR 1254, Method: STANDARD PLATE", "value": "active; positive"}, {"measurement": "mutagenic call", "setting": "Test System: AMES SALMONELLA TYPHIMURIUM, Strain/Indicator: TA1535, Metabolic Activation: NONE, Method: STANDARD PLATE", "value": "inactive; negative"}, {"measurement": "mutagenic call", "setting": "Test System: AMES SALMONELLA TYPHIMURIUM, Strain/Indicator: TA1535, Metabolic Activation: RAT, LIVER, S-9, AROCLOR 1254, Method: STANDARD PLATE", "value": "inactive; negative"}, {"measurement": "mutagenic call", "setting": "Test System: AMES SALMONELLA TYPHIMURIUM, Strain/Indicator: TA1537, Metabolic Activation: HAMSTER, LIVER, S-9, AROCLOR 1254, Method: STANDARD PLATE", "value": "active; positive"}, {"measurement": "mutagenic call", "setting": "Test System: AMES SALMONELLA TYPHIMURIUM, Strain/Indicator: TA1537, Metabolic Activation: RAT, LIVER, S-9, AROCLOR 1254, Method: STANDARD PLATE", "value": "active; positive"}, {"measurement": "mutagenic call", "setting": "Test System: AMES SALMONELLA TYPHIMURIUM, Strain/Indicator: TA1538, Metabolic Activation: HAMSTER, LIVER, S-9, AROCLOR 1254, Method: STANDARD PLATE", "value": "active; positive"}, {"measurement": "mutagenic call", "setting": "Test System: AMES SALMONELLA TYPHIMURIUM, Strain/Indicator: TA1538, Metabolic Activation: NONE, Method: STANDARD PLATE", "value": "active; positive"}, {"measurement": "mutagenic call", "setting": "Test System: AMES SALMONELLA TYPHIMURIUM, Strain/Indicator: TA1538, Metabolic Activation: RAT, LIVER, S-9, AROCLOR 1254, Method: STANDARD PLATE", "value": "active; positive"}, {"measurement": "mutagenic call", "setting": "Test System: MOUSE LYMPHOMA, Strain/Indicator: L5178Y (TK+/TK-), Metabolic Activation: NONE, Method: SUSPENSION/PLATE", "value": "inactive; negative"}, {"measurement": "mutagenic call", "setting": "Test System: MOUSE LYMPHOMA, Strain/Indicator: L5178Y (TK+/TK-), Metabolic Activation: RAT, LIVER, S-9, AROCLOR 1254, Method: SUSPENSION/PLATE", "value": "inactive; negative"}]}
{"smiles": "c1ccc(Oc2ccccc2)cc1", "values": [{"measurement": "mutagenic call", "setting": "Test System: AMES SALMONELLA TYPHIMURIUM, Strain/Indicator: TA98, Metabolic Activation: HAMSTER, LIVER, S-9, AROCLOR 1254, Method: PREINCUBATION", "value": "inactive; negative"}, {"measurement": "mutagenic call", "setting": "[1]", "value": "inactive; negative"}, {"measurement": "mutagenic call", "setting": "Test System: AMES SALMONELLA TYPHIMURIUM, Strain/Indicator: TA98, Metabolic Activation: RAT, LIVER, S-9, AROCLOR 1254, Method: PREINCUBATION", "value": "inactive; negative"}, {"measurement": "mutagenic call", "setting": "Test System: AMES SALMONELLA TYPHIMURIUM, Strain/Indicator: TA100, Metabolic Activation: HAMSTER, LIVER, S-9, AROCLOR 1254, Method: PREINCUBATION", "value": "inactive; negative"}, {"measurement": "mutagenic call", "setting": "[2]", "value": "inactive; negative"}, {"measurement": "mutagenic call", "setting": "Test System: AMES SALMONELLA TYPHIMURIUM, Strain/Indicator: TA100, Metabolic Activation: RAT, LIVER, S-9, AROCLOR 1254, Method: PREINCUBATION", "value": "inactive; negative"}, {"measurement": "mutagenic call", "setting": "Test System: AMES SALMONELLA TYPHIMURIUM, Strain/Indicator: TA1535, Metabolic Activation: HAMSTER, LIVER, S-9, AROCLOR 1254, Method: PREINCUBATION", "value": "inactive; negative"}, {"measurement": "mutagenic call", "setting": "Test System: AMES SALMONELLA TYPHIMURIUM, Strain/Indicator: TA1535, Metabolic Activation: NONE, Method: PREINCUBATION", "value": "inactive; negative"}, {"measurement": "mutagenic call", "setting": "Test System: AMES SALMONELLA TYPHIMURIUM, Strain/Indicator: TA1535, Metabolic Activation: RAT, LIVER, S-9, AROCLOR 1254, Method: PREINCUBATION", "value": "inactive; negative"}, {"measurement": "mutagenic call", "setting": "Test System: AMES SALMONELLA TYPHIMURIUM, Strain/Indicator: TA1537, Metabolic Activation: HAMSTER, LIVER, S-9, AROCLOR 1254, Method: PREINCUBATION", "value": "inactive; negative"}, {"measurement": "mutagenic call", "setting": "Test System: AMES SALMONELLA TYPHIMURIUM, Strain/Indicator: TA1537, Metabolic Activation: NONE, Method: PREINCUBATION", "value": "inactive; negative"}, {"measurement": "mutagenic call", "setting": "Test System: AMES SALMONELLA TYPHIMURIUM, Strain/Indicator: TA1537, Metabolic Activation: RAT, LIVER, S-9, AROCLOR 1254, Method: PREINCUBATION", "value": "inactive; negative"}]}
